Activity calls are given as the source filed them. The calls are words filed in the database; no cut-off is given here.
Columns and labels:
[1] = molecular target: Cannabinoid receptor 2 (Homo sapiens) (UniProt P34972); test: CB2/PERIPH/H Eurofins SafetyScreen44 (BI); conditions: Compound concentration 10.0 uM
[2] = molecular target: Beta-2 adrenergic receptor (Homo sapiens) (UniProt P07550); test: BETA2/HUM Eurofins SafetyScreen44 (BI); conditions: filed as antagonist, Compound concentration 10.0 uM
[3] = molecular target: Cathepsin B (Homo sapiens) (UniProt P07858); test: CATHEPSB(H) Eurofins SafetyScreen44 (BI); conditions: Compound concentration 10.0 uM
[4] = molecular target: 5-hydroxytryptamine receptor 1A (Homo sapiens) (UniProt P08908); test: 5HT1A/H Eurofins SafetyScreen44 (BI); conditions: Compound concentration 10.0 uM
[5] = molecular target: Alpha-1A adrenergic receptor (Homo sapiens) (UniProt P35348); test: ALPHA1AH_ANTAG Eurofins SafetyScreen44 (BI); conditions: filed as antagonist, Compound concentration 10.0 uM
[6] = molecular target: D(2) dopamine receptor (Homo sapiens) (UniProt P14416); conditions: Compound concentration 10.0 uM
[7] = molecular target: Muscarinic acetylcholine receptor M5 (Homo sapiens) (UniProt P08912); conditions: Compound concentration 10.0 uM
[8] = molecular target: 5-hydroxytryptamine receptor 2A (Homo sapiens) (UniProt P28223); test: 5HT2AH_AGON Eurofins SafetyScreen44 (BI); conditions: filed as agonist, Compound concentration 10.0 uM
[9] = molecular target: 5-hydroxytryptamine receptor 1E (Homo sapiens) (UniProt P28566); conditions: Compound concentration 10.0 uM
[10] = molecular target: 5-hydroxytryptamine receptor 1A (Homo sapiens) (UniProt P08908); conditions: Compound concentration 10.0 uM
[11] = molecular target: 5-hydroxytryptamine receptor 2B (Homo sapiens) (UniProt P41595); conditions: Compound concentration 10.0 uM
[12] = molecular target: Muscarinic acetylcholine receptor M1 (Homo sapiens) (UniProt P11229); conditions: Compound concentration 10.0 uM
[13] = molecular target: T1, 5-hydroxytryptamine receptor 1D (Homo sapiens, UniProt P28221); conditions: Compound concentration 10.0 uM
[14] = molecular target: 5-hydroxytryptamine receptor 2A (Homo sapiens) (UniProt P28223); conditions: Compound concentration 10.0 uM
[15] = molecular target: Matrix metalloproteinase-14 (Homo sapiens) (UniProt P50281); test: MT1-MMP(H)(MMP-14) Eurofins SafetyScreen44 (BI); conditions: Compound concentration 10.0 uM
[16] = molecular target: Caspase-6 (Homo sapiens) (UniProt P55212); test: CASPASE-6_CE Eurofins SafetyScreen44 (BI); conditions: Compound concentration 10.0 uM
[17] = molecular target: Mu-type opioid receptor (Homo sapiens) (UniProt P35372); test: MU/H Eurofins SafetyScreen44 (BI); conditions: Compound concentration 10.0 uM
[18] = molecular target: Endothelin-converting enzyme 1 (Homo sapiens) (UniProt P42892); test: ECE(H) Eurofins SafetyScreen44 (BI); conditions: Compound concentration 10.0 uM
[19] = molecular target: Histamine H1 receptor (Homo sapiens) (UniProt P35367); conditions: Compound concentration 10.0 uM
[20] = molecular target: Angiotensin-converting enzyme 2 (Homo sapiens) (UniProt Q9BYF1); test: ACE-2(HU) Eurofins SafetyScreen44 (BI); conditions: Compound concentration 10.0 uM
[21] = molecular target: Glutamate NMDA receptor (Rattus norvegicus) (UniProt P35439+Q00959+Q00960+Q00961+Q62645+Q8VHN2+Q9R1M7); test: NMDA/R Eurofins SafetyScreen44 (BI); assay type: protein-complex assay; conditions: Compound concentration 10.0 uM
[22] = molecular target: Collagenase 3 (Homo sapiens) (UniProt P45452); test: MMP-13 (H) Eurofins SafetyScreen44 (BI); conditions: Compound concentration 10.0 uM
[23] = molecular target: MAO-A (amine oxidase [flavin-containing] A) (Rattus norvegicus, UniProt P21396); test: MAO-A_ANTAG Eurofins SafetyScreen44 (BI); parameters: mode of action antagonist; scale not given: the % may be the effect or the level left; conditions: compound concentration 10 uM, read-out: % Ctrl
[24] = molecular target: Vasopressin V1a receptor (Homo sapiens) (UniProt P37288); test: V1A/HUM Eurofins SafetyScreen44 (BI); conditions: Compound concentration 10.0 uM
[25] = molecular target: L-type calcium channel (dihydropyridine site), Cav1.2 alpha-1C (Rattus norvegicus, UniProt P22002); test: CA+/DHPSI/R Eurofins SafetyScreen44 (BI); parameters: mode of action inhibitor; conditions: rat brain, probe [3H](+)PN200-110, compound concentration 10 uM, read-out: % Ctrl
[26] = molecular target: Adenosine receptor A2a (Homo sapiens) (UniProt P29274); test: A2A/H Eurofins SafetyScreen44 (BI); conditions: filed as antagonist, Compound concentration 10.0 uM
[27] = molecular target: Stromelysin-1 (Homo sapiens) (UniProt P08254); test: MMP-3 (H) Eurofins SafetyScreen44 (BI); conditions: Compound concentration 10.0 uM
[28] = molecular target: Alpha-2C adrenergic receptor (Homo sapiens) (UniProt P18825); conditions: Compound concentration 10.0 uM
[29] = molecular target: T2, Kappa-type opioid receptor (Homo sapiens, UniProt P41145); test: GPCRScan assay: inhibition of KOR; parameters: radioligand conc. used [nm] 0.6 – 1.2, parental cells stable HEK
[30] = molecular target: Histamine H1 receptor (Homo sapiens) (UniProt P35367); test: H1/PYRIL/HS Eurofins SafetyScreen44 (BI); conditions: Compound concentration 10.0 uM
[31] = molecular target: 5-hydroxytryptamine receptor 5A (Homo sapiens) (UniProt P47898); conditions: Compound concentration 10.0 uM
[32] = molecular target: 5-hydroxytryptamine receptor 2B (Homo sapiens) (UniProt P41595); test: 5HT2B/H AG Eurofins SafetyScreen44 (BI); conditions: filed as agonist, Compound concentration 10.0 uM
[33] = molecular target: T1, 5-hydroxytryptamine receptor 1D; test: GPCRScan assay: inhibition of 5-HT1D; parameters: radioligand conc. used [nm] 1.0 – 2.0, parental cells HEKT
[34] = molecular target: Matrilysin (Homo sapiens) (UniProt P09237); test: MMP-7 (H) Eurofins SafetyScreen44 (BI); conditions: Compound concentration 10.0 uM
[35] = molecular target: Chymase (Homo sapiens, UniProt P23946); test: Angiotensin II formation by CMA1 in human plasma; assay type: cell-free
[36] = molecular target: Dipeptidyl peptidase 4 (Homo sapiens) (UniProt P27487); test: DIPEPTIDYLPEPTIDASE Eurofins SafetyScreen44 (BI); conditions: Compound concentration 10.0 uM
[37] = molecular target: T2, Kappa-type opioid receptor; test: KAPPA(KOP)_HU Eurofins SafetyScreen44 (BI); conditions: Compound concentration 10.0 uM
[38] = molecular target: Sigma intracellular receptor 2 (Homo sapiens) (UniProt Q5BJF2); conditions: Compound concentration 10.0 uM

T2 sequence (P41145 whole entry): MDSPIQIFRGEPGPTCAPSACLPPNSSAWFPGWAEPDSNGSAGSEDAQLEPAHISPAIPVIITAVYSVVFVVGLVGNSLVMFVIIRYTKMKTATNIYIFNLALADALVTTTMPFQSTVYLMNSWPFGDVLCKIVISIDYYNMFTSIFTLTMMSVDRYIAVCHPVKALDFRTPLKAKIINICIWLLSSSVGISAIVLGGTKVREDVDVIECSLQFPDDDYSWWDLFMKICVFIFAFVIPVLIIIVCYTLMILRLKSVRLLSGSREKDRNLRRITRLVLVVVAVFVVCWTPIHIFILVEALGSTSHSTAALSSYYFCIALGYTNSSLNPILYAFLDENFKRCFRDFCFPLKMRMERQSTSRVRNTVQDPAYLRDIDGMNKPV
Chain of 5-hydroxytryptamine receptor 2B (Homo sapiens) (P41595 whole entry): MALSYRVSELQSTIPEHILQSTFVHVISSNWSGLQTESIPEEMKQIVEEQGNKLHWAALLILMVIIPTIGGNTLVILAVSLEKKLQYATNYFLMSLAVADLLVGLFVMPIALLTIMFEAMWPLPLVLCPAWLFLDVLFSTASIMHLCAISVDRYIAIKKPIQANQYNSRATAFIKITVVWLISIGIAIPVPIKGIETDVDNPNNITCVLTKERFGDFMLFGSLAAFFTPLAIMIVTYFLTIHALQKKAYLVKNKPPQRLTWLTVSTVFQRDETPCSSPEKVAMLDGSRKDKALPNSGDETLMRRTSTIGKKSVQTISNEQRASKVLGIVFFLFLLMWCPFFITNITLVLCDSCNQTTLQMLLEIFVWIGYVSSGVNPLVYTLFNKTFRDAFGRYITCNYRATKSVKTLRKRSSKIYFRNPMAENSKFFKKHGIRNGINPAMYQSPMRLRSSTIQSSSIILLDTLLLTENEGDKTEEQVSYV
T1 sequence (P28221 whole entry): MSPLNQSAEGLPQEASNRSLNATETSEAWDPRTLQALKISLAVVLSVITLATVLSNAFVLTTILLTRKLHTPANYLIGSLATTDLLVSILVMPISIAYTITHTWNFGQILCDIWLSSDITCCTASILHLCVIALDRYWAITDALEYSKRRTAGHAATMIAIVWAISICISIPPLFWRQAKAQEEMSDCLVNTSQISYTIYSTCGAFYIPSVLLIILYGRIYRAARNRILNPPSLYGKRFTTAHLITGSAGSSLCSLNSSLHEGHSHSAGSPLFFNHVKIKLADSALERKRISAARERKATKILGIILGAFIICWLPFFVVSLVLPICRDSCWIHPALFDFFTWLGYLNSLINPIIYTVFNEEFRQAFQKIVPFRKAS
Chain of 5-hydroxytryptamine receptor 2A (Homo sapiens) (P28223 whole entry): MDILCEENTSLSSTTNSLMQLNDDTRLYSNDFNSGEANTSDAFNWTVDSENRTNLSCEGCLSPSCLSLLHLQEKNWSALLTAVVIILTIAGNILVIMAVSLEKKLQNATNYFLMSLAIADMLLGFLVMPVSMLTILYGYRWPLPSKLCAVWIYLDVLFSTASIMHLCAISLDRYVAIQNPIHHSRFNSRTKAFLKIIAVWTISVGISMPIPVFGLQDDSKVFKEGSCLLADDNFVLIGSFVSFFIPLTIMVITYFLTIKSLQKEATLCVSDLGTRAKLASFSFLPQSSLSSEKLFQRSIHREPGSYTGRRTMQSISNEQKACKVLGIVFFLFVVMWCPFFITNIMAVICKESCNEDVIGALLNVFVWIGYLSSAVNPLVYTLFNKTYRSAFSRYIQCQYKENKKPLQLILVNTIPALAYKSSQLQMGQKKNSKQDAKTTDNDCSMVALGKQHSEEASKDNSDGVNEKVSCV
Chain of 5-hydroxytryptamine receptor 1A (Homo sapiens) (P08908 whole entry): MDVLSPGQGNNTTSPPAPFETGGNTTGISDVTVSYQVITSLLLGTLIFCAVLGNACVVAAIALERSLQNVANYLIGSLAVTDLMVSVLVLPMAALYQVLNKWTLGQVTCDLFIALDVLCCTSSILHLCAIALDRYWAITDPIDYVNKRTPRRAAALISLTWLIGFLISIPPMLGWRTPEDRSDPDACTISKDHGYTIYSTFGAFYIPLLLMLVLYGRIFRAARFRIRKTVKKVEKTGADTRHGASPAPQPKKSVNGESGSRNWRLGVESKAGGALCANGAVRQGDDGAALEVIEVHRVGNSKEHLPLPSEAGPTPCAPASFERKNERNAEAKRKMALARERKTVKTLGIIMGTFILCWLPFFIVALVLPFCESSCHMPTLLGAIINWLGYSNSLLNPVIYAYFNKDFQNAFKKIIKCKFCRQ
Chain of Histamine H1 receptor (Homo sapiens) (P35367 whole entry): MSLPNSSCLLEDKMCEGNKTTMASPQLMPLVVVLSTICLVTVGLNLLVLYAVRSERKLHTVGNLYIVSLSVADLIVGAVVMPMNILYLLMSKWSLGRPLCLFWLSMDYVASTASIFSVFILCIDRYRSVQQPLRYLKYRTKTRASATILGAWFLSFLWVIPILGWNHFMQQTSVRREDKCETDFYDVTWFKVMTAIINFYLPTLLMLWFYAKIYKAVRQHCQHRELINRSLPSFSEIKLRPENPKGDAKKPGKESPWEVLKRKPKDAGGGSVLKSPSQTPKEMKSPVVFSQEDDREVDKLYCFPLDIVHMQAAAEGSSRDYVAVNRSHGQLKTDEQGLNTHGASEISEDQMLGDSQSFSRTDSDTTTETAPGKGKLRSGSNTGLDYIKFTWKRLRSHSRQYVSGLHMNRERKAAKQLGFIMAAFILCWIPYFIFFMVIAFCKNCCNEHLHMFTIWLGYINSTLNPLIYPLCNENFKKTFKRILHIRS
Chain of MAO-A (amine oxidase [flavin-containing] A) (P21396 whole entry): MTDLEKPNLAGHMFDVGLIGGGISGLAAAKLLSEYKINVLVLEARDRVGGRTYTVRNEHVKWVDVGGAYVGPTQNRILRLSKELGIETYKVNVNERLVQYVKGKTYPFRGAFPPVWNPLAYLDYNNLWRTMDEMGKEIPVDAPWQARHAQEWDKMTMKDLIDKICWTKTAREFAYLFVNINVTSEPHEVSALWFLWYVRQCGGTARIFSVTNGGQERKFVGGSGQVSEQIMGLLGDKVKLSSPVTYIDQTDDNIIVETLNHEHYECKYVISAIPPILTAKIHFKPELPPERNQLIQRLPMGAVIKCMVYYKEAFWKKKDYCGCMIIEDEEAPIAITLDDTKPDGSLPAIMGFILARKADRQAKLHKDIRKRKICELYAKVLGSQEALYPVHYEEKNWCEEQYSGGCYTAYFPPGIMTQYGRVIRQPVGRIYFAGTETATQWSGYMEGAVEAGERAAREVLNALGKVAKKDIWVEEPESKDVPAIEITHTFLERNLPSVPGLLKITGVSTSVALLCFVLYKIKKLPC
Chain of Matrilysin (Homo sapiens) (P09237 whole entry): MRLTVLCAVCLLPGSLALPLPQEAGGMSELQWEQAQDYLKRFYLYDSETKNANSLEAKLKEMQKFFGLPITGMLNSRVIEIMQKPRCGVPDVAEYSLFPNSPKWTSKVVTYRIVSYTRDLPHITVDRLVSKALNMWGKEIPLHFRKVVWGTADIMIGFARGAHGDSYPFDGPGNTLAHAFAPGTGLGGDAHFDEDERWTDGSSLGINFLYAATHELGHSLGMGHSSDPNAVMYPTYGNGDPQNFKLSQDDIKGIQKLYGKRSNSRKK
Chain of Adenosine receptor A2a (Homo sapiens) (P29274 whole entry): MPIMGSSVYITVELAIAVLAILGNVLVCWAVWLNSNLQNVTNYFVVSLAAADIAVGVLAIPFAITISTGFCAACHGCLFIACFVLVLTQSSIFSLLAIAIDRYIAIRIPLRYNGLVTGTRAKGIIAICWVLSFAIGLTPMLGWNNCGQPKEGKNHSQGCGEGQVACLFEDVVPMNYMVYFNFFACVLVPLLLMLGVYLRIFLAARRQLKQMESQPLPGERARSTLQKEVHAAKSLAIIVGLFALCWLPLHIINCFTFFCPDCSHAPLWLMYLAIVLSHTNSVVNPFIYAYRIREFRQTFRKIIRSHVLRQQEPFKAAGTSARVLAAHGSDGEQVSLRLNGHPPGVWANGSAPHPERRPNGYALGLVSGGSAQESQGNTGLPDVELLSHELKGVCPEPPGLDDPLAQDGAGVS
Chain of Mu-type opioid receptor (Homo sapiens) (P35372 whole entry): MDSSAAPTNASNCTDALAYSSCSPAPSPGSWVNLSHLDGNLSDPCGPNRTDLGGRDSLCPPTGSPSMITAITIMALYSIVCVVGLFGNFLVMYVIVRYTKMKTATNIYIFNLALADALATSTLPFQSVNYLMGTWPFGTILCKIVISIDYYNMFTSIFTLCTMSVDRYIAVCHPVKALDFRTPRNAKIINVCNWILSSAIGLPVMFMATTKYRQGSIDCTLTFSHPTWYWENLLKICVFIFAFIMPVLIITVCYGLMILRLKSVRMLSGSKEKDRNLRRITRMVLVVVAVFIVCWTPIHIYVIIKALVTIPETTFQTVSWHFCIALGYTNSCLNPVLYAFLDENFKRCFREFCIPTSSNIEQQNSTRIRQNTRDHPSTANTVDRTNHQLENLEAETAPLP
Chain of Chymase (P23946 whole entry): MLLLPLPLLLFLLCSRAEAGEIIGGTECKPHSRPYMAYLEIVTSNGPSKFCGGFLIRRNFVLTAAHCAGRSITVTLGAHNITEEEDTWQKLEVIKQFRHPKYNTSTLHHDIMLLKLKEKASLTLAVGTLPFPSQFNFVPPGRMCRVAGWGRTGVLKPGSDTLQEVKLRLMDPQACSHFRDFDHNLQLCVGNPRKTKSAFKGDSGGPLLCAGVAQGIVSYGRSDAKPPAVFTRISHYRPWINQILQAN
Chain of Cannabinoid receptor 2 (Homo sapiens) (P34972 whole entry): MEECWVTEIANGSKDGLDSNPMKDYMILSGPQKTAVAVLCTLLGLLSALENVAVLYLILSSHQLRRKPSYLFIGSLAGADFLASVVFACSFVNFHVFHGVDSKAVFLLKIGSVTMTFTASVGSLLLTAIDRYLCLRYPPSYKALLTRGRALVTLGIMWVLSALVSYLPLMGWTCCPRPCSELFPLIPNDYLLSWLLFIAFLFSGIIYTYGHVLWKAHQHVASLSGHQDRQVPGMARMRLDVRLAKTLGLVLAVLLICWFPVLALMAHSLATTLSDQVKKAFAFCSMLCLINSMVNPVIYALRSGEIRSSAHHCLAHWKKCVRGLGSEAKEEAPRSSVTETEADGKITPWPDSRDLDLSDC

**Q.** With `CC[C@H](CC(=O)O)n1c(=O)c2ncccc2n(Cc2cn(C)c3cc(C)cc(C)c23)c1=O` [BI-1942] as the compound, how does the residual activity [1] read?
**A.** Its residual activity is 109%.

**Q.** And the residual activity [2]?
**A.** Its residual activity is 93%.

**Q.** What about the residual activity [3] of the same compound?
**A.** Its residual activity is 98%.

**Q.** And the residual activity [4]?
**A.** The residual activity was 79%.

**Q.** What about the residual activity [5] of the same compound?
**A.** Its residual activity is 103%.

**Q.** And the inhibition [6]?
**A.** Its inhibition is 0.91%.

**Q.** And the inhibition [7]?
**A.** The inhibition was 8.73%.

**Q.** And the residual activity [8]?
**A.** Its residual activity is 87%.

**Q.** And the inhibition [9]?
**A.** Its inhibition is -9.73%.

**Q.** And the inhibition [10]?
**A.** The inhibition was 8.83%.

**Q.** What about the inhibition [11] of the same compound?
**A.** The inhibition was 5.53%.

**Q.** What about the inhibition [12] of the same compound?
**A.** Its inhibition is 8.69%.

**Q.** And the inhibition [13]?
**A.** Its inhibition is 52.9%.

**Q.** And the inhibition [14]?
**A.** The inhibition was 0.22%.

**Q.** And the residual activity [15]?
**A.** The residual activity was 134%.

**Q.** And the residual activity [16]?
**A.** Its residual activity is 99%.

**Q.** And the residual activity [17]?
**A.** Its residual activity is 96%.

**Q.** And the residual activity [18]?
**A.** The residual activity was 82%.

**Q.** What about the inhibition [19] of the same compound?
**A.** The inhibition was 14.1%.

**Q.** What about the residual activity [20] of the same compound?
**A.** The residual activity was 127%.

**Q.** What about the residual activity [21] of the same compound?
**A.** The residual activity was 113%.

**Q.** And the residual activity [22]?
**A.** The residual activity was 109%.

**Q.** What about the activity at 10 µM [23] of the same compound?
**A.** The activity at 10 µM was 86% (not active).

**Q.** What about the residual activity [24] of the same compound?
**A.** Its residual activity is 101%.

**Q.** What about the activity at 10 µM [25] of the same compound?
**A.** The activity at 10 µM was 108% (not active).

**Q.** What about the residual activity [26] of the same compound?
**A.** The residual activity was 98%.

**Q.** And the residual activity [27]?
**A.** Its residual activity is 90%.

**Q.** What about the inhibition [28] of the same compound?
**A.** The inhibition was 13.8%.

**Q.** And the Ki ([29]; read-out: Ki)?
**A.** Its Ki is 4.95 µM.

**Q.** What about the Ki ([29]; read-out: pKi (converted)) of the same compound?
**A.** The Ki was 4.79 µM.

**Q.** What about the residual activity [30] of the same compound?
**A.** Its residual activity is 100%.

**Q.** What about the inhibition [31] of the same compound?
**A.** Its inhibition is 5.71%.

**Q.** What about the residual activity [32] of the same compound?
**A.** The residual activity was 100%.

**Q.** What about the Ki [33] of the same compound?
**A.** Its Ki is 1.13 µM.

**Q.** And the residual activity [34]?
**A.** The residual activity was 100%.

**Q.** And the IC50 [35]?
**A.** Its IC50 is 0.198 µM (active).

**Q.** And the residual activity [36]?
**A.** Its residual activity is 107%.

**Q.** What about the residual activity [37] of the same compound?
**A.** Its residual activity is 89%.

**Q.** And the inhibition [38]?
**A.** Its inhibition is -9.5%.

Source: ChEMBL document CHEMBL4800723, “Data for DCP probe BI-1942” (2021)
